System: Mtb
Assay type: cell-based, Mycobacterium tuberculosis

C[C@H]1COC2(CCN(c3nc(=O)c4cc(C(F)(F)F)cc([N+](=O)[O-])c4s3)CC2)O1 [BTZ-043]
effect on mycobacterial growth on agar containing BTZ-043 (1 ng/mL BTZ-043, bacteria from BTZ-043 treated BALB/c mice, untreated mice and H37Rv): did not restrict mycobacterial viability
growth of Mtb from drug treated IL-13tg mice on agar containing BTZ-043 (5 or 10 ng/mL BTZ-043, IL-13tg mice 250 mg/kg/day 10 days): did not grow
mycobacterial growth on agar containing BTZ-043 (5 or 10 ng/mL BTZ-043, bacteria from BTZ-043 treated BALB/c mice, untreated mice and H37Rv): No growth

Source: PMC11742723, “The clinical-stage drug BTZ-043 accumulates in murine tuberculosis lesions and efficiently acts against Mycobacterium tuberculosis” (Nature Communications, 2025)
